These results are taken from patent US20240376073A1 (Hoffmann-La Roche Inc., priority 2021, published 2024).

Counter-ions that a name gives are not always drawn.

The term IC90 denotes the concentration at which the effect reaches the 90% level.

In the experiment the test system is Acinetobacter baumannii ATCC17961. As to the kind of experiment: Antimicrobial susceptibility testing: 90% growth inhibitory concentration (IC90) determination. In kind it is cell-based. The conditions noted are these: Acinetobacter baumannii ATCC17961; Iso-Sensitest broth; growth by OD 600 nm over 16 h; 35±2° C.; read-out: ATCC 17961 IC90. Here is the method: The in vitro antimicrobial activity of the compounds was determined according to the following procedure:
The assay used a 10-points Iso-Sensitest broth medium to measure quantitatively the in vitro activity of the compounds against Acinetobacter baumannii ATCC17961.
Stock compounds in DMSO were serially twofold diluted (e.g. range from 50 to 0.097 μM final concentration) in 384 wells microtiter plates and inoculated with 49 μl the bacterial suspension in Iso-Sensitest medium to have a final cell concentration of ˜5×10^(5) CFU/ml in a final volume/well of 50 ul/well. Microtiter plates were incubated at 35±2° C.
Bacterial cell growth was determined with the measurement of optical density at λ=600 nm each 20 minutes over a time course of 16 h. Growth inhibition was calculated during the logarithmic growth of the bacterial cells with determination of the concentration inhibiting 50% (IC50) and 90% (IC90) of the growth.
Table 1 provides the […] growth inhibitory concentrations (IC90) in micromoles per liter of the compounds of present invention obtained against the strain Acinetobacter baumannii ATCC17961.
In the case of `Cc1cc(NC(=O)c2ncc(-c3ccc(OCC#N)c(F)c3F)n2C)ccc1C(=O)N[C@H]1C[C@@H](NC(=O)C[N+](C)(C)C)C1` [Example A18, [2-[[3-[[4-[5-[4-(cyanomethoxy)-2,3-difluoro-phenyl]-1-methyl-imidazole-2-carbonyl]amino]-2-methyl-benzoyl]amino]cyclobutyl]amino]-2-oxo-ethyl]-trimethyl-ammonium formate], the IC90 came out at 240 nM. With `Cn1c(-c2ccc(OC(F)F)c(F)c2Cl)cnc1C(=O)Nc1ccc(C(=O)N2CCN(C(=O)C3CC[N+](C)(CC4CNC4)CC3)CC2)c(Cl)c1` (centres unmarked) [Example C15, N-[4-[4-[1-(azetidin-3-yl-methyl)-1-meth-yl-piperidin-1-ium-4-carbonyl]-piperazine-1-car-bonyl]-3-chloro-phenyl]-5-[2-chloro-4-(difluoro-methoxy)-3-fluoro-phenyl]-1-methyl-imidazole-2-carboxamide; formic acid; formate] the figure was 73 nM; with `CCc1cc(NC(=O)c2ncc(-c3ccc(OC)c(F)c3F)n2C)ccc1C(=O)N1CCC(C(=O)NCCOCC[N+](C)(C)C)CC1` [Example B23, 2-(2-(1-(4-(5-(2,3-difluoro-4-methoxyphenyl)-1-methyl-1H-imidazole-2-carboxamido)-2-ethylbenzoyl)piperidine-4-carboxamido)ethoxy)-N,N,N-trimethylethan-1-aminium iodide], 410 nM.

On to `COc1ccc(-c2cnc(C(=O)Nc3ccc(C(=O)N4CCN(CC[N+](C)(C)CC(N)=O)CC4)c(Cl)c3)n2C)c(F)c1F` [Example A4, (2-amino-2-oxo-ethyl)-[2-[4-[2-chloro-4-[[5-(2,3-difluoro-4-methoxy-phenyl)-1-methyl-imidazole-2-carbonyl]amino]benzoyl]piperazin-1-yl]ethyl]-dimethyl-ammonium; formate], for which the IC90 turned out to be 210 nM. For `Cc1cc(NC(=O)c2ncc(-c3ccc(OCC#N)c(F)c3F)n2C)ccc1C(=O)N1CCN(C(=O)N[C@@H]2C[N+](C)(C)C[C@H]2O)CC1` [Example B28, (3R,4R)-3-(4-(4-(5-(4-(cyanomethoxy)-2,3-difluorophenyl)-1-methyl-1H-imidazole-2-carboxamido)-2-methylbenzoyl)piperazine-1-carboxamido)-4-hydroxy-1,1-dimethylpyrrolidin-1-ium formate], the 90% effect concentration (IC90) turned out to be 220 nM. In the case of `Cn1c(-c2ccc(OC(F)F)c(F)c2F)cnc1C(=O)Nc1ccc(C(=O)N2CCN(C(=O)C[N+]3(C)CCC(C(N)=O)C3)CC2)c(Cl)c1` (centres unmarked) [Example C26, N-[4-[4-[2-(3-carbamoyl-1-methyl-pyrrolidin-1-ium-1-yl)acet-yl]piperazine-1-carbonyl]-3-chloro-phenyl]-5-[4-(difluorometh-oxy)-2,3-difluoro-phenyl]-1-methyl-imidazole-2-carboxamide; formate], the 90% effect concentration (IC90) was found to be 69 nM. As to `Cn1c(-c2ccc(OC(F)F)c(F)c2Cl)cnc1C(=O)Nc1ccc(C(=O)N2CCN(C(=O)C3CC[N+](C)(CC(N)=O)CC3)CC2)c(Cl)c1` (centres unmarked) [Example C1, N-[4-[4-[1-(2-Amino-2-oxo-ethyl)-1-methyl-piperidin-1-ium-4-carbonyl]piperazine-1-carbonyl]-3-chloro-phenyl]-5-[2-chloro-4-(difluoromethoxy)-3-fluoro-phenyl]-1-methyl-imidazole-2-carboxamide;formate], the 90% effect concentration (IC90) was determined as 23 nM. As to `CCc1cc(NC(=O)c2ncc(-c3ccc(OC)c(F)c3F)n2C)ccc1C(=O)NCCOCC[N+](C)(C)C` [Example A5, 2-(2-(4-(5-(2,3-difluoro-4-methoxyphenyl)-1-methyl-1H-imidazole-2-carboxamido)-2-ethylbenzamido)ethoxy)-N,N,N-trimethylethan-1-aminium iodide], the IC90 amounted to 460 nM.
